Data published in patent publication US20150191469A1, “COMPOUNDS AND METHODS FOR TREATING HIV” (priority 2012, published 2015).

Each compound was assayed on HIV (assay: MT4 assay: antiviral HIV activity (cell protection, cell titer glo readout at 96 hours)). Conditions: Human immunodeficiency virus 1, MT4, 96 h, MT4 cells, cell titer glo readout at 96 hours, 10 point dose response; read-out: HIV MT4 Assay IC50.
Format: cell-based
In short: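 MT-4 cells infected with HIV, with inhibition readout by CellTiter-Glo luminescence at 96 h relative to no-compound control. Cytotoxicity measured in parallel under the same conditions. IC50 from a 10-point, 3-4-fold dilution series spanning >1000-fold, fitted with a four-parameter logistic equation.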

Structure (SMILES) | IC50
Cc1nc2c(cc(C(=O)N3CCC4(CC3)C(=O)NC(=O)N4C)n2C)c(-c2cc(F)c3c(c2C)CCCO3)c1[C@H](OC(C)(C)C)C(=O)O [Example 221] | 17600 nM
Cc1nc2c(cc(C(=O)N3[C@@H]4CC[C@H]3CC(N3CCOCC3)C4)n2C)c(-c2cc(F)c3c(c2C)CCCO3)c1[C@H](OC(C)(C)C)C(=O)O (stereo partly drawn) [Example 222] | 376 nM
Cc1nc2c(cc(C(=O)N3CCN(C4CCOCC4)C[C@H]3C)n2C)c(-c2cc(F)c3c(c2C)CCCO3)c1[C@H](OC(C)(C)C)C(=O)O [Example 223] | 121 nM
Cc1ccc(N2CCN(C(=O)c3cc4c(-c5cc(F)c6c(c5C)CCCO6)c([C@H](OC(C)(C)C)C(=O)O)c(C)nc4n3C)CC2)cc1 [Example 224] | 41.4 nM
Cc1nc2c(cc(C(=O)N3CCN(C4CCOCC4)CC3)n2C)c(-c2cc(F)c3c(c2C)CCCO3)c1[C@H](OC(C)(C)C)C(=O)O [Example 225] | 436 nM
Cc1nc2c(cc(C(=O)NCc3ccc(N(C)C)cc3)n2C)c(-c2cc(F)c3c(c2C)CCCO3)c1[C@H](OC(C)(C)C)C(=O)O [Example 227] | 2.8 nM
CNC(=O)c1cc2c(-c3cc(F)c4c(c3C)CCCO4)c([C@H](OC(C)(C)C)C(=O)O)c(C)nc2n1C [Example 228] | 136 nM
Cc1nc2c(cc(C(=O)NCC3CC3)n2C)c(-c2cc(F)c3c(c2C)CCCO3)c1[C@H](OC(C)(C)C)C(=O)O [Example 229] | 12.2 nM
Cc1nc2c(cc(C(=O)NCc3ccc(F)cc3)n2C)c(-c2cc(F)c3c(c2C)CCCO3)c1[C@H](OC(C)(C)C)C(=O)O [Example 230] | 4.7 nM
COCCNC(=O)c1cc2c(-c3cc(F)c4c(c3C)CCCO4)c([C@H](OC(C)(C)C)C(=O)O)c(C)nc2n1C [Example 231] | 48.7 nM
Cc1nc2c(cc(C(=O)NCCC(C)(C)C)n2C)c(-c2cc(F)c3c(c2C)CCCO3)c1[C@H](OC(C)(C)C)C(=O)O [Example 232] | 2 nM
COc1ccc(CNC(=O)c2cc3c(-c4cc(F)c5c(c4C)CCCO5)c([C@H](OC(C)(C)C)C(=O)O)c(C)nc3n2C)cc1 [Example 233] | 3.6 nM
Cc1nc2c(cc(C(=O)NC3CC3)n2C)c(-c2cc(F)c3c(c2C)CCCO3)c1[C@H](OC(C)(C)C)C(=O)O [Example 234] | 44.7 nM
CSCCNC(=O)c1cc2c(-c3cc(F)c4c(c3C)CCCO4)c([C@H](OC(C)(C)C)C(=O)O)c(C)nc2n1C [Example 235] | 32.4 nM
Cc1nc2c(cc(C(=O)NCCS(C)(=O)=O)n2C)c(-c2cc(F)c3c(c2C)CCCO3)c1[C@H](OC(C)(C)C)C(=O)O [Example 236] | 4140 nM
Cc1nc2c(cc(C(=O)NCC3CCCCC3)n2C)c(-c2cc(F)c3c(c2C)CCCO3)c1[C@H](OC(C)(C)C)C(=O)O [Example 237] | 4.3 nM
Cc1nc2c(cc(C(=O)NCCO)n2C)c(-c2cc(F)c3c(c2C)CCCO3)c1[C@H](OC(C)(C)C)C(=O)O [Example 238] | 3860 nM
CCCCNC(=O)c1cc2c(-c3cc(F)c4c(c3C)CCCO4)c([C@H](OC(C)(C)C)C(=O)O)c(C)nc2n1C [Example 239] | 6.5 nM
Cc1nc2c(cc(C(=O)NCCN3CCOCC3)n2C)c(-c2cc(F)c3c(c2C)CCCO3)c1[C@H](OC(C)(C)C)C(=O)O [Example 240] | 370 nM
Cc1nc2c(cc(C(=O)NCCC3CCOCC3)n2C)c(-c2cc(F)c3c(c2C)CCCO3)c1[C@H](OC(C)(C)C)C(=O)O [Example 241] | 21.2 nM
Cc1nc2c(cc(C(=O)NC(C)(C)C)n2C)c(-c2cc(F)c3c(c2C)CCCO3)c1[C@H](OC(C)(C)C)C(=O)O [Example 242] | 79.3 nM
Cc1nc2c(cc(C(=O)NCC(C)(C)C)n2C)c(-c2cc(F)c3c(c2C)CCCO3)c1[C@H](OC(C)(C)C)C(=O)O [Example 243] | 30 nM
Cc1nc2c(cc(C(=O)NC(C)C)n2C)c(-c2cc(F)c3c(c2C)CCCO3)c1[C@H](OC(C)(C)C)C(=O)O [Example 244] | 25.3 nM
Cc1nc2c(cc(C(=O)NCCC(F)(F)F)n2C)c(-c2cc(F)c3c(c2C)CCCO3)c1[C@H](OC(C)(C)C)C(=O)O [Example 245] | 22.5 nM
Cc1nc2c(cc(C(=O)NCC(C)C)n2C)c(-c2cc(F)c3c(c2C)CCCO3)c1[C@H](OC(C)(C)C)C(=O)O [Example 246] | 15.1 nM
Cc1nc2c(cc(C(=O)NCCCN(C)C)n2C)c(-c2cc(F)c3c(c2C)CCCO3)c1[C@H](OC(C)(C)C)C(=O)O [Example 247] | 18100 nM
Cc1nc2c(cc(C(=O)NCCN3CCCC3=O)n2C)c(-c2cc(F)c3c(c2C)CCCO3)c1[C@H](OC(C)(C)C)C(=O)O [Example 248] | 3050 nM
Cc1nc2c(cc(C(=O)NC3CCCCC3)n2C)c(-c2cc(F)c3c(c2C)CCCO3)c1[C@H](OC(C)(C)C)C(=O)O [Example 249] | 12.1 nM

Continued, values first:

IC50 | Structure (SMILES)
40.1 nM | Cc1nc2c(cc(C(=O)N3CCCC3)n2C)c(-c2cc(F)c3c(c2C)CCCO3)c1[C@H](OC(C)(C)C)C(=O)O [Example 250]
28.3 nM | Cc1nc2c(cc(C(=O)N3CCCCC3)n2C)c(-c2cc(F)c3c(c2C)CCCO3)c1[C@H](OC(C)(C)C)C(=O)O [Example 251]
65.2 nM | COCCCNC(=O)c1cc2c(-c3cc(F)c4c(c3C)CCCO4)c([C@H](OC(C)(C)C)C(=O)O)c(C)nc2n1C [Example 252]
1.9 nM | Cc1nc2c(cc(C(=O)NCc3c(Cl)cccc3Cl)n2C)c(-c2cc(F)c3c(c2C)CCCO3)c1[C@H](OC(C)(C)C)C(=O)O [Example 253]
3.8 nM | Cc1nc2c(cc(C(=O)NCc3c(F)cccc3F)n2C)c(-c2cc(F)c3c(c2C)CCCO3)c1[C@H](OC(C)(C)C)C(=O)O [Example 254]
3.8 nM | Cc1nc2c(cc(C(=O)NCc3cccc(Cl)c3)n2C)c(-c2cc(F)c3c(c2C)CCCO3)c1[C@H](OC(C)(C)C)C(=O)O [Example 255]
34.5 nM | Cc1nc2c(cc(C(=O)N(C)C3CCCCC3)n2C)c(-c2cc(F)c3c(c2C)CCCO3)c1[C@H](OC(C)(C)C)C(=O)O [Example 256]
2 nM | Cc1nc2c(cc(C(=O)NCc3c(F)cccc3Cl)n2C)c(-c2cc(F)c3c(c2C)CCCO3)c1[C@H](OC(C)(C)C)C(=O)O [Example 257]
31.4 nM | Cc1nc2c(cc(C(=O)N3CCC(C)(C)CC3)n2C)c(-c2cc(F)c3c(c2C)CCCO3)c1[C@H](OC(C)(C)C)C(=O)O [Example 258]
1.9 nM | Cc1nc2c(cc(C(=O)NCCC3CCCCC3)n2C)c(-c2cc(F)c3c(c2C)CCCO3)c1[C@H](OC(C)(C)C)C(=O)O [Example 259]
1.9 nM | Cc1nc2c(cc(C(=O)NCc3ccc4c(c3)OCO4)n2C)c(-c2cc(F)c3c(c2C)CCCO3)c1[C@H](OC(C)(C)C)C(=O)O [Example 260]
46.8 nM | CCN(C(=O)c1cc2c(-c3cc(F)c4c(c3C)CCCO4)c([C@H](OC(C)(C)C)C(=O)O)c(C)nc2n1C)C1CCCCC1 [Example 261]
103 nM | Cc1nc2c(cc(C(=O)NCCc3cccnc3)n2C)c(-c2cc(F)c3c(c2C)CCCO3)c1[C@H](OC(C)(C)C)C(=O)O [Example 262]
3.1 nM | Cc1nc2c(cc(C(=O)NCc3ccc(Cl)cc3)n2C)c(-c2cc(F)c3c(c2C)CCCO3)c1[C@H](OC(C)(C)C)C(=O)O [Example 263]
454 nM | Cc1nc2c(cc(C(=O)NCC3COC3)n2C)c(-c2cc(F)c3c(c2C)CCCO3)c1[C@H](OC(C)(C)C)C(=O)O [Example 264]
4.8 nM | Cc1nc2c(cc(C(=O)NCc3cccc(F)c3)n2C)c(-c2cc(F)c3c(c2C)CCCO3)c1[C@H](OC(C)(C)C)C(=O)O [Example 265]

IC50 | Structure (SMILES)
146 nM | Cc1nc2c(cc(C(=O)NCc3cccnc3)n2C)c(-c2cc(F)c3c(c2C)CCCO3)c1[C@H](OC(C)(C)C)C(=O)O [Example 266]
26.1 nM | Cc1nc2c(cc(C(=O)NCc3ccccn3)n2C)c(-c2cc(F)c3c(c2C)CCCO3)c1[C@H](OC(C)(C)C)C(=O)O [Example 267]
3.4 nM | Cc1nc2c(cc(C(=O)NCCC(C)C)n2C)c(-c2cc(F)c3c(c2C)CCCO3)c1[C@H](OC(C)(C)C)C(=O)O [Example 268]
80.5 nM | COCCN(CCOC)C(=O)c1cc2c(-c3cc(F)c4c(c3C)CCCO4)c([C@H](OC(C)(C)C)C(=O)O)c(C)nc2n1C [Example 269]
112 nM | Cc1nc2c(cc(C(=O)N(C)C)n2C)c(-c2cc(F)c3c(c2C)CCCO3)c1[C@H](OC(C)(C)C)C(=O)O [Example 270]
1.6 nM | Cc1nc2c(cc(C(=O)NC3Cc4ccccc4C3)n2C)c(-c2cc(F)c3c(c2C)CCCO3)c1[C@H](OC(C)(C)C)C(=O)O [Example 271]
294 nM | Cc1nc2c(cc(C(=O)NCCN3CCCCC3)n2C)c(-c2cc(F)c3c(c2C)CCCO3)c1[C@H](OC(C)(C)C)C(=O)O [Example 272]
939 nM | Cc1nc2c(cc(C(=O)NCCCN3CCCC3=O)n2C)c(-c2cc(F)c3c(c2C)CCCO3)c1[C@H](OC(C)(C)C)C(=O)O [Example 273]
208 nM | Cc1nc2c(cc(C(=O)NCc3ccncc3)n2C)c(-c2cc(F)c3c(c2C)CCCO3)c1[C@H](OC(C)(C)C)C(=O)O [Example 274]
1000 nM | Cc1nc2c(cc(C(=O)NCCN3CCCC3)n2C)c(-c2cc(F)c3c(c2C)CCCO3)c1[C@H](OC(C)(C)C)C(=O)O [Example 275]
10 nM | Cc1nc2c(cc(C(=O)NCC3CCC3)n2C)c(-c2cc(F)c3c(c2C)CCCO3)c1[C@H](OC(C)(C)C)C(=O)O [Example 276]
100 nM | Cc1nc2c(cc(C(=O)N3CCN(C(C)C)CC3)n2C)c(-c2cc(F)c3c(c2C)CCCO3)c1[C@H](OC(C)(C)C)C(=O)O [Example 277]
110 nM | Cc1nc2c(cc(C(=O)N3CCC(N4CCCCC4)CC3)n2C)c(-c2cc(F)c3c(c2C)CCCO3)c1[C@H](OC(C)(C)C)C(=O)O [Example 278]
10 nM | COC(C)(C)CCNC(=O)c1cc2c(-c3cc(F)c4c(c3C)CCCO4)c([C@H](OC(C)(C)C)C(=O)O)c(C)nc2n1C [Example 279]
400 nM | Cc1nc2c(cc(C3CCC(C)(C)CC3)n2C)c(-c2cc(F)c3c(c2C)CCCO3)c1[C@H](OC(C)(C)C)C(=O)O [Example 283]
15.7 nM | Cc1nc2c(cc(CCc3ccnc4ccccc34)n2C)c(-c2cc(F)c3c(c2C)CCCO3)c1[C@H](OC(C)(C)C)C(=O)O [Example 284]
